Test results published in US6459001B1 (Aventis Pharma S.A., priority 1997, dated 2002).
Counter-ions that a name gives are not always drawn.

Tests used:
[1] = system: bone resorption (skullcaps of new-born mice); test: Test of mouse calvarium: bone resorption by release of 45Ca from skullcaps of new-born mice, ex-vivo; settings: inhibition of bone resorption (45Ca release) in half-calvaria, 48 hours contact; for inhibition at 10 µM: Mus musculus, read-out: Mouse cavarium % inhibition at 10 μM
Source text: 2—Test of Mouse Calvarium
Injection of a tracer dose of ^45Ca (CaCl2) to gestating female mice in order to study bone resorption by measuring the release of ^45Ca from the skullcaps of new-born mice.
Determination of the activity of a molecule on bone resorption, ex-vivo study.
Vehicle: DMSO, H2O/BSA (0.1%)
Dose: Variable ([…] in screening).
Echistatin (ref. H-9010-BACHEM)
^45Ca in the form of an aqueous solution of CaCl2—ref. CES3 AMERSHAM or NEZ-013 NEN.
Vehicle: Physiological serum
Dose: 25 μCi/mouse/0.4 ml
CMRL 1066 with phenol red (ref. 041-01535 M/GIBCO) supplemented by 0.1% BSA and penicillin/streptomycin.
1) Injection of ^45Ca to Gestating Mice (OF1, Strain: Swiss)
a) Preparation of the Labelled Solution:
190 μl of the mother solution of calcium at 2 mci/ml is added to 6 ml of physiological serum.
On the 17th day of gestation the mice receive 400 μl of this solution by intravenous route, that is 25 μCi/mouse.
2) Removal of the Tissue (Skullcap (Calvarium))
Six days after their birth the new-born mice are decapitated, then the head is recovered, and the skin is incised from the nape to the front. The skullcap is removed by cutting it out with scissors, and using a punch two exactly identical half-calvaria (one on the left and one on the right) are cut from the parietal bones. One will serve as the control, the other will be used to test the product to be studied.
Each half calvarium is placed in a well of a 24-well plate, containing 1 ml of medium, on a 100 μm polyethylene and nylex support, in order to avoid all contact with the bottom of the well.
After 24 hours, the polyethylene supports carrying the calvaria are transferred into new 24-well plates containing 1 ml of fresh medium and the products to be tested or their solvents. 200 μl of medium from the first plates is removed from each well and a first count of the radioactivity is carried out (value A).
This change of medium allows all the mechanical stress associated with the removal to be eliminated.
48 hours after putting the tissues in contact with the studied products, 200 μl of medium is removed from each well and counted (value B), so as to determine the quantity of ^45Ca released from the medium during the so-called resorption phase.
The calvarium is then completely demineralized in 1 ml of 5% trichloracetic acid and after digestion, 200 μl is also removed and counted so as to determine the quantity of calcium remaining in the bone (value C). Expression of the results
A % of bone resorption is calculated for each half-calvarium (each well) in the following manner:
% bone resorption=dpm B/dpm (A+B+C)×100
The sum of dpm A+B+C represents the quantity of ^45Ca incorporated in each bone part on the day of removal.
In order to measure the effect of a product, the ratio of the percentage of bone resorption of the treated well and of the corresponding control well is calculated for each point. The value found called the resorption index is comprised between 0 and 1 if the product inhibits bone resorption and is >1 if the product potentializes it. The average of the 6 indices (since there are 6 points/group) of each product is then calculated which gives one index/product. If this index is subtracted from the value 1, the inhibitory power of the product is obtained, which can be expressed as a percentage.
Furthermore a statistical test (Student T-test) is carried out by comparing point/point the individual resorption indices.

human αvβ3 receptor = human αvβ3 receptor (Homo sapiens, UniProt P05106+P06756); test: Displacement of the binding Vitronectin/Vitronectin receptor (αvβ3), competition test; settings: human vitronectin coated plates, 3 hours at ambient temperature, read-out: Competition test Vn/VR (αvβ3) binding IC50 en
Method: 1—Study of the Products of the Invention on the Displacement of the Binding: Vitronectin/Vitronectin Receptor (αvβ3) […]
MaxiSorp 96-well plates are coated overnight at 4° C., with 100 μl of human Vitronectin (cf Yatohgo et al. Cell., Structure and fraction 13: 281-292 (1988)) at 2 μg/ml, (Dilution in coating buffer).
The next day, the wells are emptied and the ligands (Vitronectin) are then fixed (see fixing buffer) for one hour at ambient temperature under gentle agitation.
The wells are washed six times (see washing buffer), then the following are added to each well and in this order:
40 μl of incubation buffer, 10 μl of the dilution of the product to be tested, (the products are diluted in a 50/50 mixture of DMSO-H2O) 50 μl of human αvβ3 receptor (cf Pytela et al. Methods Enzymol (1987) 144:475) (dilution in incubation buffer, to be adapted according to the receptor batch and according to the ligand).
The ligand, the human αvβ3 receptor and the products to be studied are incubated for 3 hours at ambient temperature under gentle agitation.
The wells are again washed six times, then incubated for 2 hours at ambient temperature under gentle agitation, in the presence of 100 μl of anti-receptor, 4B12-HRP antibody coupled to a peroxidase (the 4B12-HRP antibody is diluted in an incubation buffer. The dilution is to be adapted according to the receptor batch).
This kit contains a bottle A of substrate (3,3′,5,5′-tetramethylbenzidine at 0.4 g/l) and a bottle B (H2O2 at 0.02% in a citrate/citric acid buffer). Extemporaneously, a volume of A is mixed with a volume of B, then the reaction mixture is distributed at a rate of 100 μl/well. The enzymatic reaction develops over […] for Vitronectin/αvβ3, then its development is stopped by the addition of 100 μl of 1M phosphoric acid. The optical density is measured at 450 nm. […]
coating buffer: Carbonate 0.05 M, NaOH pH 9.6 fixing buffer: PBS containing 0.5% BSA (pH 7.4) washing buffer: PBS containing 0.05% Tween 20 (pH 7.4)
Expression of the Results:
The following curve is traced: the percentage of binding of the human vitronectin as a function of the logarithm of the concentration of each product tested.
For each product the IC50 is determined according to the following formula:
BO=Maximum binding in the absence of any product
Bmin=Minimum binding in the presence of the highest concentration of product.

Row | Compound | IC50 (human αvβ3 receptor) [nM] | Mouse cavarium % inhibition at 10 μM [1] [%] | inhibition at 10 µM [1] [%]
1 | COc1c(OCCC(NC(=O)OCc2ccccc2)C(=O)OCC(O)CO)cc2c(c1OC)C1=C(CCC1)C(=NNC1=NCCCN1)CC2 (racemic) [EX. 27, (2,3-Dihydroxypropyl) Ester of O-(9,10-Dimethoxy1,2,3,4,5,6-hexahydro 4-[(1,4,5,6-tetrahydro2-pyrimidinyl)hydrazono]-8-benz(e)azulenyl]N-[(phenylmethoxy)carbonyl]DL-homoserine.] | 170 | 39 | –
2 | COc1c(OCC(=O)C(C)(C)CC(=O)O)cc2c(c1OC)C1=C(CCC1)C(=NNC1=NCCN1)CC2 [EX. 10, 5-(4((4,5-Dihydro-1H-imidazolin-2-yl)hydrazono)-9,10-dimethoxy-1,2,3,4,5,6-hexahydro-S-benz(e)azulenyl)oxy)-3,3-dimethyl-4-oxo-pentanoic Acid] | 800 | – | 8
3 | O=C(O)CCCOc1ccc2c(c1)C1=C(CCC1)C(=NNC1=NCCN1)CC2 [EX. 20, 4-((4((4,5-Dihydro-1H-imidazol-2-yl)hydrazono)-1,2,3,4,5,6-hexahydro-9-benz(e)azulenyl)oxy)-butanoic Acid] | 79 | – | 11
4 | COc1c(OCCC(=O)O)cc2c(c1OC)C1=C(CCC1)C(=NNC1=NCCN1)CC2 [EX. 14, 3-(4((4,5-Dihydro-1H-imidazolin-2-yl)hydrazono)-9,10-dimethoxy-1,2,3,4,5,6-hexahydro-8-benz(e)azulenyl)oxy)-propanoic Acid] | 750 | – | 14
5 | COc1c(OCCCC(=O)O)cc2c(c1OC)C1=C(CCC1)C(=NNC1=NCCN1)CC2 [EX. 11, 4-(4((4,5-Dihydro-1H-imidazolin-2-yl)hydrazono)-9,10-dimethoxy-1,2,3,4,5,6-hexahydro-8-benz(e)azulenyl)oxy)-butanoic Acid] | 50 | – | 7
6 | N=C(N)NN=C1CCc2cc(OCCCCC(=O)O)c3c(c2C2=C1CCC2)OCO3 [EX. 22, 5-((8-(((Amino)iminomethyl)hydrazono)-6,7,8,9,10,11-hexahydro-azuleno(5,6-d)-1,3-benzodioxol-4-yl)-oxy)-pentanoic Acid] | 2360 | – | –
7 | COc1c(OCCC(NC(=O)OCc2ccccc2)C(=O)O)cc2c(c1OC)C1=C(CCC1)C(=NNC1=NCCCCN1)CC2 (racemic) [EX. 31, O-[9,10-Dimethoxy1,2,3,4,5,6-hexahydro4-[(4,5,6,7-tetrahydro1H-1,3-diazepin-2-yl)hydrazono]8-benz(e)azulenyl]N-[(phenylmethoxy)carbonyl]DL-homoserine] | 55 | – | 20
8 | 4-((4-(((Amino)iminomethyl)hydrazono)-9,10-dimethoxy-1,2,3,4,5,6-hexahydrobenz(e)azulen-8-yl)oxy)-butanoic Acid [EX. 2] | 450 | 19 | –
9 | COc1c(OCCCCCC(=O)O)cc2c(c1OC)C1=C(CCC1)C(=NNC1=NCCN1)CC2 [EX. 8, 6-(4((4,5-Dihydro-1H-imidazolin-2-yl)hydrazono)-9,10-dimethoxy-1,2,3,4,5,6-hexahydro-8-benz(e)azulenyl)oxy)-hexanoic Acid] | 2790 | – | –
10 | 4-((4-(((Amino)iminomethyl)hydrazono)-9,10-dimethoxy-1,2,3,4,5,6-hexahydrobenz(e)azulen-8-yl)oxy)-pentanoic Acid [EX. 3] | 2100 | – | –
11 | COc1c(OCCCC(=O)O)cc2c(c1OC)C1=C(CCC1)C(=NNC1=NCCCN1)CC2 [EX. 12, 4-((9,10-Dimethoxy-4-((1,4,5,6-tetrahydro-2-pyrimidinyl)hydrazono)-1,2,3,4,5,6-hexahydro-8-benz(e)-azulenyl)oxy)-butanoic Acid] | 350 | – | 12
12 | COc1c(OCCCCC(=O)O)cc2c(c1OC)C1=C(CCC1)C(=NNC1=NCCN1)CC2 [EX. 6, 5-(9,10-dimethoxy-1,2,3,4,5,6-hexahydro-4-(4,5-dihydro-1H-imidazolin-2-yl)hydrazono)-8-benz(e)azulenyl)oxy)-pentanoic Acid] | 110 | – | 7.5

Now those with a lower IC50 (human αvβ3 receptor), led by results:

Row | IC50 (human αvβ3 receptor) [nM] | Compound | Mouse cavarium % inhibition at 10 μM [1] [%] | inhibition at 10 µM [1] [%]
13 | 13 | O=C(NC(CCOc1ccc2c(c1)CCC(=NNC1=NCCN1)C1=C2CCC1)C(=O)O)OCc1ccccc1 (racemic) [EX. 25, O-[4-[(4,5-Dihydro-1H-imidazol-2-yl)hydrazono)-1,2,3,4,5,6-hexahydro-8-benz(e)azulenyl]-N-[(phenylmethoxy)-carbonyl]-DL-homoserine] | – | 26
14 | 37 | O=C(O)CCCOc1ccc2c(c1)CCC(=NNC1=NCCN1)C1=C2CCC1 [EX. 21, 4-(4((4,5-Dihydro-1H-imidazolin-2-yl)hydrazono)-1,2,3,4,5,6-hexahydro-8-benz(e)azulenyl)oxy)-butanoic Acid] | – | –
15 | 6 | COc1c(OCCC(NC(=O)OCc2ccccc2)C(=O)O)cc2c(c1OC)C1=C(CCC1)C(=NNC1=NCCCN1)CC2 (racemic) | – | 30
16 | 28 | COc1c(OCCC(NC(=O)OCCCn2cnc(-c3cccnc3)c2)C(=O)O)cc2c(c1OC)C1=C(CCC1)C(=NNC1=NCCN1)CC2 (racemic) [EX. 29, Monohydrochloride of O-[4-[(4,5-Dihydro1H-imidazol-2-yl)hydrazono]9,10-dimethoxy1,2,3,4,5,6-hexahydro8-benz(e)azulenyl]N-[[3-[4-(3-pyridinyl)1H-imidazol-1-yl]propoxy]carbonyl]DL-homoserine] | – | 18
17 | 35 | COc1c(OCCC(NC(=O)OCc2ccccc2)C(=O)O)cc2c(c1OC)C1=C(CCC1)C(=NNC1=NC3CCCCC3N1)CC2 (racemic) [EX. 32, O-[9,10-Dimethoxy1,2,3,4,5,6-hexahydro4-[(3a,4,5,6,7,7a-hexahydro1H-benzimidazol-2-yl)hydrazono]8-benz(e)azulenyl]N-[(phenylmethoxy)carbonyl]DL-homoserine] | – | –
18 | 15 | COc1c(OCCC(NS(=O)(=O)c2cccc3cccnc23)C(=O)O)cc2c(c1OC)C1=C(CCC1)C(=NNC1=NCCN1)CC2 (racemic) [EX. 28, O-[4-[(4,5-Dihydro1H-imidazol-2-yl)hydrazono]9,10-dimethoxy 1,2,3,4,5,6-hexahydro8-benz(e)azulenyl]N-[(8-quinolinyl)sulphonyl]DL-homoserine] | – | 27
